This note sets out measurements from publication PMC8112869, “Therapeutic inhibition of keratinocyte TRPV3 sensory channel by local anesthetic dyclonine” (eLife, 2021).

The target in one experiment is T1, mouse TRPV3 (Mus musculus, UniProt Q8K424).
T1 sequence (Q8K424 1-791): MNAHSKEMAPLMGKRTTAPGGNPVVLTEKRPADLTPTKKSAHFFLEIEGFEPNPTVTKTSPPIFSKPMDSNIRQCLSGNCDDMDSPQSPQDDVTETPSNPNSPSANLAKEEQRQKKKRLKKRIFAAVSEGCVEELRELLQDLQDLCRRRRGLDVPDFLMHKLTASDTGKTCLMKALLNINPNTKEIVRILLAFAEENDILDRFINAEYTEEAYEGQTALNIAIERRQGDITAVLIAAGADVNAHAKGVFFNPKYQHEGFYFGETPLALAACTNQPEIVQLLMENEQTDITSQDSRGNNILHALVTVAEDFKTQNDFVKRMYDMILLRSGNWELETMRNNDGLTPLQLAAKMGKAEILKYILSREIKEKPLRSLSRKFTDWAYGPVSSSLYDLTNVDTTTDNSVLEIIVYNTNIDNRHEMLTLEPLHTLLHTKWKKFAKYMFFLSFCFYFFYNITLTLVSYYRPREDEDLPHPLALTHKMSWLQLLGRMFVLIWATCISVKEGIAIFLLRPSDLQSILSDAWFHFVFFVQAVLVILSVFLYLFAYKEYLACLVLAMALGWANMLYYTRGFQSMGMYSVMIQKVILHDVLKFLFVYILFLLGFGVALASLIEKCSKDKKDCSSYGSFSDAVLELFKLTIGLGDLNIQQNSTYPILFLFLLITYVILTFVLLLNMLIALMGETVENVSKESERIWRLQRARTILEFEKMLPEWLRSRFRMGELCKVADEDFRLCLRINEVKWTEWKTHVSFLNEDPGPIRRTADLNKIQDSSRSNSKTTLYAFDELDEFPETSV
Briefly: Single-channel inside-out patch recording of TRPV3 from HEK 293T cells. Also noted: expressed in transfected cells; host or cells: HEK 293T. The class given is cell-based. From the text: Conventional whole-cell and excised patch-clamp recording methods were used. For the recombinant expressing system, green fluorescent EGFP was used as a surface marker for gene expression. Recording pipettes were pulled from borosilicate glass capillaries (World Precision Instruments) and fire-polished to a resistance between 2 and 4 MΩ when filled with internal solution containing (in mM) 140 CsCl, 2.0 MgCl2, 5 EGTA, and 10 HEPES, pH 7.4 (adjusted with CsOH). Bath solution contained (in mM): 140 NaCl, 5 KCl, 3 EGTA, and 10 HEPES, pH 7.4 adjusted with NaOH. For recordings in keratinocytes, the bath saline consisted of (in mM) 140 NaCl, 5 KCl, 2 MgCl2, 2 CaCl2, 10 glucoses, and 10 HEPES, pH 7.4 adjusted with NaOH, and the pipette solution contained (in mM) 140 CsCl, 5 EGTA, and 10 HEPES, pH 7.3 adjusted with CsOH. For single-channel recordings, the pipette solution and bath solution were symmetrical and contained (in mM) 140 NaCl, 5 KCl, 3 EGTA, and 10 HEPES, pH 7.4. Isolated cells were voltage clamped and held at –60 mV using an EPC10 amplifier with the Patchmaster software (HEKAElectronics, Lambrecht, Germany). For a subset of recordings, currents were amplified using an Axopatch 200B amplifier (Molecular Devices, Sunnyvale, CA) and recorded through a BNC-2090/MIO acquisition system (National Instruments, Austin, TX) using QStudio developed by Dr. Feng Qin at State University of New York at Buffalo. Whole-cell recordings were typically sampled at 5 kHz and filtered at 1 kHz, and single-channel recordings were sampled at 25 kHz and filtered at 10 kHz. The compensation of pipette series resistance and capacitance was compensated using the built-in circuitry of the amplifier (>80%) to reduce voltage errors. Exchange of external solution was performed using a gravity-driven local perfusion system. As determined by the conductance tests, the solution around a patch under study was fully controlled by the application of a flow rate of 100 μl/min or greater. Dyclonine hydrochloride, MTSET and carvacrol were purchased from MCE (MedChemExpress). Unless otherwise noted, all chemicals were purchased from Sigma (Millipore Sigma, St. Louis, MO). Water-insoluble reagents were dissolved in pure ethanol or DMSO to make a stock solution and diluted into the recording solution at the desired final concentrations before the experiment. […] In the scratching behavior experiments, carvacrol was first dissolved in 10% ethanol and then diluted in normal saline before administration. All experiments except those for heat activation were performed at room temperature (22–24℃).

For experiment [1], the system named is T-Rex 293 cells expressing TRPV3 G573C. In words: Cell death analysis by flow cytometry (propidium iodide), cells expressing G573C mutant. The format is cell-based, Homo sapiens. The procedure:
(§1) T-Rex 293 cells were grown in DMEM containing 4.5 mg/ml glucose, 10% (vol/vol) FBS, 50 units/ml penicillin, 50 μg/ml streptomycin, and blasticidin S (10 μg/ml), and were incubated at 37°C in a humidified incubator gassed with 5% CO2. Transfections were performed in wells of a 24-well plate using lipofectamine 2000 (Invitrogen). […] Expression of GFP fluorescence detected by an epifluorescence microscope was used as an indicator of gene expression. After treatments with the compounds for 12 hr, cells were collected, washed twice with PBS, resuspended, and then dyed with propidium iodide (PI, Thermo Fisher Scientific) in the dark according to the manufacturer’s instructions. The membrane integrity of the cells was assessed using a BD FACSCelesta flow cytometer equipped with BD Accuri C6 software (BD Biosciences, USA).

Experiment [2] relates to T-Rex 293 cells expressing TRPV3 G573S. Briefly: Cell death analysis by flow cytometry (propidium iodide), cells expressing G573S mutant. The class given is cell-based, Homo sapiens. As for the experimental part: as §1
Where [3] appears, read: dyclonine (50 μM) or 2-APB (30 μM) alone, averaged from seven experiments.
[4] abbreviates: dyclonine (50 μM) added to 2-APB (30 μM), averaged.

The structures appear in SMILES notation.

In the case of `NCCOB(c1ccccc1)c1ccccc1` [2-APB, 2-aminoethoxydiphenyl borate], the unitary conductance at mouse TRPV3 (10 μM 2-APB before dyclonine treatment) was 163.6 ± 6.4 pS. Besides, the single-channel open probability stood at 0.82 ± 0.02 on mouse TRPV3 (10 μM 2-APB without dyclonine, +60 mV) and 0.8 ± 0.02 at mouse TRPV3 (10 μM 2-APB without dyclonine, –60 mV). The cell death ratio is listed as 47.91% ± 5.54% in experiment [1] (setting [3]) and 53.60% ± 5.88% in experiment [2] (setting [3]).
On mouse TRPV3 (10 μM 2-APB with 30 μM dyclonine), `CCCCOc1ccc(C(=O)CCN2CCCCC2)cc1` [dyclonine] yielded a unitary conductance of 179.2 ± 5.5 pS. Further, the single-channel open probability on mouse TRPV3 (30 μM dyclonine with 10 μM 2-APB, +60 mV) is recorded as 0.12 ± 0.01; on mouse TRPV3 (30 μM dyclonine with 10 μM 2-APB, –60 mV), 0.08 ± 0.01. Also, the cell death ratio in experiment [1] (setting [4]) is on record as 13.85% ± 2.49%; in experiment [1] (setting [3]) it was 14.98% ± 4.40%; in experiment [2] (setting [4]), 17.68% ± 5.66%; in experiment [2] (setting [3]), 12.45% ± 2.54%.
